# Experiments:
# [1] = Hepatocyte stability assay, MH; format: in vitro ADME; conditions: mouse, cryopreserved hepatocytes, 1 μM test compound, 0.5 million cells/mL hepatocytes, 37° C., 0-180 min, read-out: MH +/− NADPH: Clint (μL/min/million cells)
# Excerpt: Hepatocyte Stability Assay: The […] of in vitro intrinsic clearance (Clint) for drug candidates in the early discovery stage is common practice in the pharmaceutical industry. The Clint values of drug candidates can help to confirm whether metabolism is the main clearance pathway when it is compared with the total body clearance in vivo. Hepatocytes are among the routinely used in vitro systems for measuring clearance. Hepatocytes have been reported to retain most of the phase I and phase II metabolic activities, and therefore, it is a useful tool to estimate the intrinsic clearance for potential drug candidates.
# Metabolic stability of testing compound were be evaluated using human and mouse hepatocytes and can also be use rat, mouse, or other animal hepatocytes to predict intrinsic clearance. Cryopreserved hepatocytes were removed from the liquid nitrogen tank and thawed in a 37° C. water bath. As soon as the cells pulled away from the vial wall, they were decanted into 48 ml of warm HT medium. Cells were centrifuged for four minutes at 420 rpm (50 g). After removing the supernatant, pellet was re-suspended in warm DMEM medium. Cell density was counted by a hemacytometer.
# The assay was carried out in 96-well microtiter plates. Compounds were incubated for 0, 60, 120, and 180 minutes at 37° C. with hepatocytes. Reaction mixtures (50 μL) contained a final concentration of 1 μM test compound, 0.5 million cells/mL hepatocytes in the DMEM medium. At each of the time points (for example, 0, 1, 2, and 3 hours), 200 μL of quench solution (100% acetonitrile with 0.1% formic acid) with internal standard was transferred to each well. Midazolam was included as a positive control to verify assay performance. Plates were sealed and centrifuged at 4° C. for 15 minutes at 4000 rpm. The supernatant is transferred to fresh plates for LC/MS/MS analysis.
# Summarized conditions (customizable): [Compound]=[…], Positive control: midazolam and/or naloxone, [Hepatocyte]=0.5 million cells/Ml, time=0, 60, 120, and 180 m t=37° C.
# (§1) All samples were analyzed on LC/MS/MS using an ABSciex API 4000 instrument, coupled to a Shimadzu LC-20AD LC Pump system. Analytical samples were separated using a Waters Atlantis T3 dC18 reverse phase HPLC column (20 mm×2.1 mm) at a flow rate of 0.5 mL/min. The mobile phase consisted of 0.1% formic acid in water (solvent A) and 0.1% formic acid in 100% acetonitrile (solvent B).
# The extent of metabolism was calculated as the disappearance of the test compound, compared to the 0-min control reaction incubations. Initial rates were calculated for the compound concentration and used to determine t½ values and subsequently, the intrinsic clearance, Clint. Clint=(0.693)(1/t½ (min))(mL incubation/million cells)
# [2] = Microsomal stability assay, HLM; format: in vitro ADME; conditions: human, pH 7.4, 1 μM test compound, 0.5 mg/mL liver microsomes protein, 37° C., 0-60 min, read-out: HLM +/− NADPH: Clint (μL/min/mg protein)
# Excerpt: (§2) Microsomal Stability Assay: Microsomal stability assay is a widely used in vitro model to characterize the metabolic conversion by phase I enzymes, such as cytochrome P450 (CYP) enzymes. Since metabolism is known to be highly variable in different species, microsomal stability assay is commonly run in multiple species. Metabolic stability of testing compound can be evaluated using human, rat, mouse, or other animal liver or intestine microsomes to predict intrinsic clearance.
# (§3) The assay was carried out in 96-well microtiter plates at 37° C. Reaction mixtures (25 μL) contained a final concentration of 1 μM test compound, 0.5 mg/mL liver microsomes protein, and 1 mM NADPH and/or 1 mM UDPGA (with alamethicin) in 100 mM potassium phosphate, pH 7.4 buffer with 3 mM MgCl2. The incubation was done with N=1, but duplicate incubation at each time point can be prepared if necessary. At each of the time points (for example, 0, 15, 30, and 60 minutes), 150 μL of quench solution (100% acetonitrile with 0.1% formic acid) with internal standard was transferred to each well. Besides the zero minute controls, mixtures containing the same components except the NADPH can also be prepared as the negative control. Verapamil was included as a positive control to verify assay performance. Plates were sealed, vortexed, and centrifuged at 4° C. for 15 minutes at 4000 rpm. The supernatant is transferred to fresh plates for LC/MS/MS analysis.
# (§4) Summarized conditions: [Compound]=1 μM, [LM]=0.5 mg/mL, [NADPH]=1 mM and/or [UDPGA]=1 mM, Buffer=100 mM Potassium Phosphate, pH 7.4 with 3 mM MgCl2, Time=0, 15, 30, and 60 min, and Temperature=37° C.
# as §1, with “AB Sciex” for “ABSciex”
# (§5) The extent of metabolism is calculated as the disappearance of the test compound, compared to the 0-min time incubation. Initial rates are calculated for the compound concentration and used to determine half-life (t½) values and subsequently, the intrinsic clearance (Clint). Clint=(0.693)(1/t½ (min))(g of liver/kg of body weight)(mL incubation/mg of microsomal protein)(45 mg of microsomal protein/g of liver weight)
# LNCaP ARE-Luc = experiment: Luciferase assay in LNCaP cell lysates (LNCaP ARE-Luc); format: cell-based; conditions: Homo sapiens, Firefly Luciferase Assay System, read-out: LNCaP ARE-Luc % inhibition IC50 Ranges
# Experimental: Lysates were thawed on ice then collected into V-bottom 96-well tissue culture plates. Lysates were centrifuged at 4° C. for 5 minutes at 4000 rpm. To measure luminescence of LNCaP cell lysates the Firefly Luciferase Assay System (Promega) was employed, according to manufacturer's protocol. Relative luminescence units (RLU) in cell lysates were detected for 10 seconds using Promega GoMax-Multi Detection Luminometer (Promega).
# Statistical analyses were performed using GraphPad Prism (Version 6.01 for Windows; La Jolla, Calif., USA). Comparisons between treatment and control groups were compared using Two-Way ANOVA with post-hoc Dunnett's and Tukey's tests. Differences were considered statistically significant at P values less than 0.05. Densitometric quantification of relative AR levels was determined by Image.
# [3] = Microsomal stability assay, MLM; format: in vitro ADME; conditions: mouse, pH 7.4, 1 μM test compound, 0.5 mg/mL liver microsomes protein, 37° C., 0-60 min, read-out: MLM +/− NADPH: Clint (μL/min/mg protein)
# Excerpt: as §2, §3, §4
# as §1, with “AB Sciex” for “ABSciex”
# as §5
Structure (SMILES),hepatocyte CLint at 1 μM [1],microsomal CLint at 1 μM [2],IC50 (LNCaP ARE-Luc),microsomal CLint at 1 μM [3]
"CC(C)(c1ccc(OCC(=O)CNS(C)(=O)=O)cc1)c1cc(Cl)c(OC[C@H](O)CCl)c(Cl)c1 [A51(S), (S)—N-(3-(4-(2-(3,5-dichloro-4-(3-chloro-2-hydroxypropoxy)phenyl)propan-2-yl)phenoxy)-2-oxopropyl)methanesulfonamide]",≥ 18 µL/min/1e6 cells,≥ 48 µL/min/mg,< 100 nM,–
CC(C)(c1ccc(OCC(=O)CS(C)(=O)=O)cc1)c1cc(Cl)c(OCC(O)CCl)c(Cl)c1 (stereo not drawn) [Compound A54],≥ 18 µL/min/1e6 cells,≥ 48 µL/min/mg,–,≥ 48 µL/min/mg
"CC(C)(c1ccc(OCC(=O)CS(C)(=O)=O)cc1)c1cc(Cl)c(OCCCCl)c(Cl)c1 [Compound A55, 1-(4-(2-(3,5-dichloro-4-(3-chloropropoxy)phenyl)propan-2-yl)phenoxy)-3-(methylsulfonyl)propan-2-one]",≥ 18 µL/min/1e6 cells,≥ 48 µL/min/mg,≥ 250 nM,≥ 48 µL/min/mg
COCC(=O)COc1ccc(Cc2cc(Cl)c(OCC(O)CCl)c(Cl)c2)cc1 (stereo not drawn) [Compound A57],≥ 18 µL/min/1e6 cells,≥ 48 µL/min/mg,–,≥ 48 µL/min/mg
COCC(=O)COc1ccc(C(F)(F)c2cc(Cl)c(OCC(O)CCl)c(Cl)c2)cc1 (stereo not drawn) [Compound A58],≥ 18 µL/min/1e6 cells,≥ 48 µL/min/mg,–,≥ 48 µL/min/mg

# Next, values leading:
hepatocyte CLint at 1 μM [1],microsomal CLint at 1 μM [2],IC50 (LNCaP ARE-Luc),microsomal CLint at 1 μM [3],Structure (SMILES)
≥ 18 µL/min/1e6 cells,≥ 48 µL/min/mg,≥ 250 nM,≥ 48 µL/min/mg,"COCC(=O)COc1ccc(C(C)(C)c2cc(Cl)c(OC[C@H](O)CCl)c(Cl)c2)cc1 [A56(S), (S)-1-(4-(2-(3,5-dichloro-4-(3-chloro-2-hydroxypropoxy)phenyl)propan-2-yl)phenoxy)-3-methoxypropan-2-one]"
≥ 18 µL/min/1e6 cells,≥ 48 µL/min/mg,< 100 nM,–,"CC(C)(c1ccc(OCC(=O)CNS(C)(=O)=O)cc1)c1cc(Cl)c(OCCCCl)c(Cl)c1 [Compound A31, N-(3-(4-(2-(3,5-dichloro-4-(3-chloropropoxy)phenyl)propan-2-yl)phenoxy)-2-oxopropyl)methanesulfonamide]"
≥ 18 µL/min/1e6 cells,≥ 48 µL/min/mg,–,≥ 48 µL/min/mg,COCC(=O)COc1ccc(C(C)(C)c2cc(Cl)c(OCCCCl)c(Cl)c2)cc1 [Compound A59]
≥ 18 µL/min/1e6 cells,≥ 48 µL/min/mg,–,≥ 48 µL/min/mg,COCC(=O)COc1ccc(C(C)(C)c2cc(Cl)c(OCC(C)(O)CCl)c(Cl)c2)cc1 (stereo not drawn) [Compound A60]
≥ 18 µL/min/1e6 cells,≥ 48 µL/min/mg,100 to 250 nM,≥ 48 µL/min/mg,CC(C)(c1ccc(OCC(=O)CNS(C)(=O)=O)cc1)c1cc(Cl)c(OCCCBr)c(Cl)c1 [Compound A61]
